Experiments:
Type in all cases: cell-based
Citrobacter diversus = test: MIC against Gram-negative bacteria: Citrobacter diversus
How it was run: (§1)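 MIC = lowest concentration of recombinant protein showing no growth. Test proteins: purified human-derived EGF domain proteins, two-fold dilution series, three wells per concentration; inoculum 5×10^5 CFU/mL in LB; incubation 37° C with shaking at 175 rpm.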

Aeromonas hydrophila = test: MIC against Gram-negative bacteria: Aeromonas hydrophila
How it was run: as §1

Pseudomonas aeruginosa = test: MIC against Gram-negative bacteria: Pseudomonas aeruginosa
How it was run: as §1

Klebsiella pneumonia = test: MIC against Gram-negative bacteria: Klebsiella pneumonia
How it was run: as §1

E. coli DH5α = test: Antibacterial activity: MIC and growth curve against E. coli DH5α in 96-well plate; conditions: minimal inhibitory concentration against E. coli DH5α; 96-well plate, 5×10^5 CFU/mL, 37° C., judged after 8 h
How it was run: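 MIC taken as lowest protein level with no bacterial growth, tracked by A600 every 30 min during 37 °C, 175 rpm culture. Two-fold protein series 50-12.5 μg/mL final, triplicate wells, against 5×10^5 CFU/mL of LB-washed mid-log cells.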

Proteus vulgaris = test: MIC against Gram-negative bacteria: Proteus vulgaris
How it was run: as §1

Proteus mirabilis = test: MIC against Gram-negative bacteria: Proteus mirabilis
How it was run: as §1

Enterobacter cloacae = test: MIC against Gram-negative bacteria: Enterobacter cloacae
How it was run: as §1

Moraxella catarrhalis = test: MIC against Gram-negative bacteria: Moraxella catarrhalis
How it was run: as §1

E. coli BL21 = test: MIC against Gram-negative bacteria: E. coli BL21
How it was run: as §1

Serratia marcescens = test: MIC against Gram-negative bacteria: Serratia marcescens
How it was run: as §1

[1] = 10 h cultivation at 37° C., 5×10^5 CFU/mL, two-fold serial dilution
[2] = 96-well plate, 5×10^5 CFU/mL, 37° C., 10 h

## PRT1062 (LQGNCSRLGCQHHCVPTLDGPTCYCNSSFQLQADGKTCK; listed as Homo sapiens)
Citrobacter diversus; [1]
  MIC C. diversus: 50 µg/mL
Aeromonas hydrophila; [1]
  MIC A. hydrophila: 25 µg/mL
Pseudomonas aeruginosa; [1]
  MIC P. aeruginosa: 25 µg/mL
Klebsiella pneumonia; [1]
  MIC K. pneumonia: 12.5 µg/mL
E. coli DH5α
  MIC: 25 µg/mL
Proteus vulgaris; [1]
  MIC P. vulgaris: 25 µg/mL
Proteus mirabilis; [1]
  MIC P. mirabilis: 12.5 µg/mL
Enterobacter cloacae; [1]
  MIC E. cloacae: 25 µg/mL
Moraxella catarrhalis; [1]
  MIC M. catarrhalis: 25 µg/mL
E. coli BL21; [1]
  MIC E. coli BL21: 50 µg/mL
Serratia marcescens; [1]
  MIC S. marcescens: 50 µg/mL

## PRT1082 (GTNPCSVNNGDCSQLCLPTSETTRSCMCTAGYSLRSGQQACE; listed as Homo sapiens)
Citrobacter diversus; [1]
  MIC C. diversus: 25 µg/mL
Aeromonas hydrophila; [1]
  MIC A. hydrophila: 12.5 µg/mL
Pseudomonas aeruginosa; [1]
  MIC P. aeruginosa: 25 µg/mL
Klebsiella pneumonia; [1]
  MIC K. pneumonia: 50 µg/mL
E. coli DH5α
  MIC: 50 µg/mL
Proteus vulgaris; [1]
  MIC P. vulgaris: 12.5 µg/mL
Proteus mirabilis; [1]
  MIC P. mirabilis: 25 µg/mL
Enterobacter cloacae; [1]
  MIC E. cloacae: 25 µg/mL
Moraxella catarrhalis; [1]
  MIC M. catarrhalis: 50 µg/mL
E. coli BL21; [1]
  MIC E. coli BL21: 12.5 µg/mL
Serratia marcescens; [1]
  MIC S. marcescens: 25 µg/mL

## PRT821 (DVDECRTHNGGCQHRCVNTPGSYLCECKPGFRLHTDSRTCL; listed as Homo sapiens)
Citrobacter diversus; C. diversus, 10 h cultivation at 37° C., 5×10^5 CFU/mL
  MIC (μg/mL) C. diversus: 25 µg/mL
Aeromonas hydrophila; A. hydrophila, 10 h cultivation at 37° C., 5×10^5 CFU/mL
  MIC (μg/mL) A. hydrophila: 50 µg/mL
Pseudomonas aeruginosa; P. aeruginosa, 10 h cultivation at 37° C., 5×10^5 CFU/mL
  MIC (μg/mL) P. aeruginosa: 12.5 µg/mL
Klebsiella pneumonia; K. pneumonia, 10 h cultivation at 37° C., 5×10^5 CFU/mL
  MIC (μg/mL) K. pneumonia: 25 µg/mL
E. coli DH5α
  MIC: 12.5 µg/mL
Proteus vulgaris; P. vulgaris, 10 h cultivation at 37° C., 5×10^5 CFU/mL
  MIC (μg/mL) P. vulgaris: 12.5 µg/mL
Proteus mirabilis; P. mirabilis, 10 h cultivation at 37° C., 5×10^5 CFU/mL
  MIC (μg/mL) P. mirabilis: 50 µg/mL
Enterobacter cloacae; E. cloacae, 10 h cultivation at 37° C., 5×10^5 CFU/mL
  MIC (μg/mL) E. cloacae: 25 µg/mL
Moraxella catarrhalis; M. catarrhalis, 10 h cultivation at 37° C., 5×10^5 CFU/mL
  MIC (μg/mL) M. catarrhalis: 12.5 µg/mL
E. coli BL21; E. coli BL21, 10 h cultivation at 37° C., 5×10^5 CFU/mL
  MIC (μg/mL) E. coli BL21: 12.5 µg/mL
Serratia marcescens; S. marcescens, 10 h cultivation at 37° C., 5×10^5 CFU/mL
  MIC (μg/mL) S. marcescens: 50 µg/mL

## PRT1369 (ASGSCPDDCNDQGRCVRGRCVCFPGYTGPSC; listed as Homo sapiens)
Citrobacter diversus; Citrobacter diversus, 5×10^5 CFU/mL, 10 h cultivation at 37° C.
  MIC against C. diversus: 12.5 µg/mL
Aeromonas hydrophila; Aeromonas hydrophila, 5×10^5 CFU/mL, 10 h cultivation at 37° C.
  MIC against A. hydrophila: 12.5 µg/mL
Pseudomonas aeruginosa; Pseudomonas aeruginosa, 5×10^5 CFU/mL, 10 h cultivation at 37° C.
  MIC against P. aeruginosa: 12.5 µg/mL
Klebsiella pneumonia; Klebsiella pneumonia, 5×10^5 CFU/mL, 10 h cultivation at 37° C.
  MIC against K. pneumonia: 12.5 µg/mL
E. coli DH5α
  MIC: 12.5 µg/mL
Proteus vulgaris; Proteus vulgaris, 5×10^5 CFU/mL, 10 h cultivation at 37° C.
  MIC against P. vulgaris: 12.5 µg/mL
Proteus mirabilis; Proteus mirabilis, 5×10^5 CFU/mL, 10 h cultivation at 37° C.
  MIC against P. mirabilis: 25 µg/mL
Enterobacter cloacae; Enterobacter cloacae, 5×10^5 CFU/mL, 10 h cultivation at 37° C.
  MIC against E. cloacae: 25 µg/mL
Moraxella catarrhalis; Moraxella catarrhalis, 5×10^5 CFU/mL, 10 h cultivation at 37° C.
  MIC against M. catarrhalis: 12.5 µg/mL
E. coli BL21; E. coli BL21, 5×10^5 CFU/mL, 10 h cultivation at 37° C.
  MIC against E. coli BL21: 12.5 µg/mL
Serratia marcescens; Serratia marcescens, 5×10^5 CFU/mL, 10 h cultivation at 37° C.
  MIC against S. marcescens: 25 µg/mL

## PRT89 (TNGQCHCKEFHYRPRGSDSCLPCDCYPVGSTSRSCA; listed as Homo sapiens)
Citrobacter diversus; Citrobacter diversus, 96-well plate, 5×10^5 CFU/mL, 37° C., 10 h
  MIC (μg/mL) C. diversus: 25 µg/mL
Aeromonas hydrophila; Aeromonas hydrophila, 96-well plate, 5×10^5 CFU/mL, 37° C., 10 h
  MIC (μg/mL) A. hydrophila: 50 µg/mL
Pseudomonas aeruginosa; Pseudomonas aeruginosa, 96-well plate, 5×10^5 CFU/mL, 37° C., 10 h
  MIC (μg/mL) P. aeruginosa: 12.5 µg/mL
Klebsiella pneumonia; Klebsiella pneumonia, 96-well plate, 5×10^5 CFU/mL, 37° C., 10 h
  MIC (μg/mL) K. pneumonia: 12.5 µg/mL
E. coli DH5α
  MIC: 25 µg/mL
Proteus vulgaris; Proteus vulgaris, 96-well plate, 5×10^5 CFU/mL, 37° C., 10 h
  MIC (μg/mL) P. vulgaris: 50 µg/mL
Proteus mirabilis; Proteus mirabilis, 96-well plate, 5×10^5 CFU/mL, 37° C., 10 h
  MIC (μg/mL) P. mirabilis: 25 µg/mL
Enterobacter cloacae; Enterobacter cloacae, 96-well plate, 5×10^5 CFU/mL, 37° C., 10 h
  MIC (μg/mL) E. cloacae: 25 µg/mL
Moraxella catarrhalis; Moraxella catarrhalis, 96-well plate, 5×10^5 CFU/mL, 37° C., 10 h
  MIC (μg/mL) M. catarrhalis: 12.5 µg/mL
E. coli BL21; E. coli BL21, 96-well plate, 5×10^5 CFU/mL, 37° C., 10 h
  MIC (μg/mL) E. coli BL21: 50 µg/mL
Serratia marcescens; Serratia marcescens, 96-well plate, 5×10^5 CFU/mL, 37° C., 10 h
  MIC (μg/mL) S. marcescens: 12.5 µg/mL

## PRT658 (DVNECELMLAVCGAALCENVEGSFLCLCASDLEEYDAQEGHCR; listed as Homo sapiens)
Citrobacter diversus; [2]
  MIC C. diversus: 50 µg/mL
Aeromonas hydrophila; [2]
  MIC A. hydrophila: 25 µg/mL
Pseudomonas aeruginosa; [2]
  MIC P. aeruginosa: 50 µg/mL
Klebsiella pneumonia; [2]
  MIC K. pneumonia: 25 µg/mL
E. coli DH5α
  MIC: 12.5 µg/mL
Proteus vulgaris; [2]
  MIC P. vulgaris: 50 µg/mL
Proteus mirabilis; [2]
  MIC P. mirabilis: 25 µg/mL
Enterobacter cloacae; [2]
  MIC E. cloacae: 12.5 µg/mL
Moraxella catarrhalis; [2]
  MIC M. catarrhalis: 12.5 µg/mL
E. coli BL21; [2]
  MIC E. coli BL21: 25 µg/mL
Serratia marcescens; [2]
  MIC S. marcescens: 12.5 µg/mL

## PRT949 (FVDVCPQMPCLNGGTCAVASNMPDGFICRCPPGFSGARCQ; listed as Homo sapiens)
Citrobacter diversus; C. diversus, 10 h cultivation at 37° C.
  MIC: 12.5 µg/mL
Aeromonas hydrophila; A. hydrophila, 10 h cultivation at 37° C.
  MIC: 50 µg/mL
Pseudomonas aeruginosa; P. aeruginosa, 10 h cultivation at 37° C.
  MIC: 50 µg/mL
Klebsiella pneumonia; K. pneumonia, 10 h cultivation at 37° C.
  MIC: 25 µg/mL
E. coli DH5α
  MIC: 12.5 µg/mL
Proteus vulgaris; P. vulgaris, 10 h cultivation at 37° C.
  MIC: 12.5 µg/mL
Proteus mirabilis; P. mirabilis, 10 h cultivation at 37° C.
  MIC: 50 µg/mL
Enterobacter cloacae; E. cloacae, 10 h cultivation at 37° C.
  MIC: 12.5 µg/mL
Moraxella catarrhalis; M. catarrhalis, 10 h cultivation at 37° C.
  MIC: 25 µg/mL
E. coli BL21; E. coli BL21, 10 h cultivation at 37° C.
  MIC: 25 µg/mL
Serratia marcescens; S. marcescens, 10 h cultivation at 37° C.
  MIC: 25 µg/mL

Reference: patent US9833497B2, “Human originated EGF domain proteins and use of the same” (CHENGDU SOURCEBIO LIMITED-LIABILITY COMPANY, priority 2013, dated 2017)
